What all share (assay): microbe, parasite or virus in culture
What all share (format): cell-based

Assay [1] relates to HCV 1a RLuc cells (dicistronic genotype 1a H77 replicon, RLuc reporter). Conditions: Hepatitis C virus, read-out: 1a. A digest of the protocol: (§1)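 Renilla luciferase HCV replicon cells: dicistronic 1b Con1, 1a H77 or 2a JFH-1 replicons, or a JFH-1 chimera carrying J6 NS5A (M31 present). Compound in DMSO serial dilutions, 72 h incubation, then lysis and luciferase read. EC50 by non-linear regression.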

Assay [2] relates to HCV 1b RLuc cells (dicistronic genotype 1b Con1 replicon, RLuc reporter). The settings on record: Hepatitis C virus, read-out: 1b (nM). The method in brief:
as §1

Assay [3] concerns HCV 2a JFH-1 Rluc cells (dicistronic genotype 2a JFH-1 replicon, RLuc reporter). Conditions: Hepatitis C virus, genotype 2a JFH-1 replicon, read-out: 2a JFH. A digest of the protocol: as §1
(In antiviral work, replicon cells carry a viral genome segment that copies itself.)

In assay [4] the test system is HCV 3a RLuc cells (NS5A chimeric genotype 1b Con1 replicon with consensus genotype 3a NS5A gene). The settings on record: Hepatitis C virus. A digest of the protocol:
(§2)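 Replicon cells stably carrying the listed RLuc-encoding dicistronic replicons were seeded and treated with DMSO serial dilutions of compound (10 mM stocks) diluted into culture medium. After 72 h, cells were lysed and Renilla luciferase activity measured. EC50 was derived by non-linear regression.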

Assay [5] relates to HCV 4a Rluc cells (NS5A chimeric genotype 1b Con1 replicon with genotype 4a NS5A gene). The settings on record: Hepatitis C virus, read-out: 4a. A digest of the protocol: as §2
[6] abbreviates: read-out: 3a, genotype 3a replicon.
Where [7] appears, read: 72 h, Table 2, genotype 1a H77 replicon, 72 hours.
Where [8] appears, read: read-out: 3a, Table 2, genotype 3a NS5A chimeric replicon.
Where [9] appears, read: genotype 1a H77 replicon, RLuc reporter.
[10] abbreviates: read-out: 3a, genotype 3a NS5A chimeric 1b Con1 replicon.
Setting [11] is: 72 h, Table 1, genotype 1a H77 replicon, 72 hours.
[12] abbreviates: read-out: 3a, Table 1, genotype 3a NS5A chimeric replicon.

pEC50: −log10 of the molar value. Read-outs that look alike come from different tables or passages of the source. A value given as a limit tells only on which side of the number the result lay.

With `COC(=O)N[C@H](C(=O)N1CCC[C@H]1c1ncc(-c2ccc3cc(-c4ccc5c(ccc6nc([C@@H]7[C@H]8CC[C@H](C8)N7C(=O)[C@H](NC(=O)OC)c7ccccc7)[nH]c65)c4)ccc3c2)[nH]1)[C@@H](C)OC` [Example 328], the pEC50 in assay [1] (genotype 1a replicon) was 9.00 to 12.00; in assay [3], 9.00 to 12.00; in assay [4] (setting [6]), 8.30 to 9.00; in assay [5], 9.00 to 12.00. Besides, the EC50 in assay [2] was 0.008 nM.

Consider `COC(=O)N[C@H](C(=O)N1CCC[C@H]1c1ncc(-c2ccc(-c3ccc(-c4cnc([C@@H]5CCCN5C(=O)[C@H](NC(=O)OC)c5ccccc5)[nH]4)cc3)cc2)[nH]1)C(C)C` [Example 60], for which the pEC50 in assay [1] (setting [7]) is 7.36 to 9.00; in assay [3] (72 h, Table 2, 72 hours), 9.00 to 12.00; in assay [4] (setting [8]), 9.00 to 12.00; in assay [5], 9.00 to 12.00. Also, the EC50 in assay [2] (72 h) was found to be 0.02 nM.

For `COC(=O)NC(C(=O)N1CCC[C@H]1c1nc(-c2ccc3cc(-c4ccc5c(ccc6nc([C@@H]7CCCN7C(=O)[C@@H](NC(=O)OC)C(C)C)[nH]c65)c4)ccc3c2)c[nH]1)c1cccnc1` (stereo partly shown) [Example 228], the pEC50 in assay [1] (setting [9]), in assay [3] (RLuc reporter), in assay [4] (setting [10]) and in assay [5] was 9.00 to 12.00 in each case. Moreover, the EC50 in assay [2] was found to be 0.015 nM.

`COC(=O)N[C@H](C(=O)N1[C@@H]2CC[C@@H](C2)[C@H]1c1ncc(-c2ccc3c(c2)CCc2cc(-c4cnc([C@@H]5CCCN5C(=O)[C@@H](NC(=O)OC)C5CCOCC5)[nH]4)ccc2-3)[nH]1)C(C)C` [Example 86]: the pEC50 was 9.00 to 12.00 in assay [1] (setting [7]); 9.00 to 12.00 in assay [3] (72 h, Table 2, 72 hours); 8.30 to 9.00 in assay [4] (setting [8]); 9.00 to 12.00 in assay [5]. Also, the EC50 in assay [2] (72 h) was 0.034 nM.

Take `COC(=O)N[C@H](C(=O)N1CCC[C@H]1c1ncc(-c2ccc(-c3cc4ccc(-c5c[nH]c([C@@H]6CCCN6C(=O)[C@H](NC(=O)OC)c6ccccc6)n5)cc4s3)cc2)[nH]1)C(C)C` [Example 252]: the pEC50 in assay [1] (setting [9]), in assay [3] (RLuc reporter), in assay [4] (setting [10]) and in assay [5] was 9.00 to 12.00 in each case. Besides, the EC50 in assay [2] came to 0.004 nM.

Regarding `COC(=O)N[C@H](C(=O)N1CCC[C@H]1c1ncc(-c2ccc3cc(-c4ccc(-c5cnc([C@@H]6CCCN6C(=O)[C@H](NC(=O)C6CCCO6)c6ccccc6)[nH]5)cc4)ccc3c2)[nH]1)C(C)C` (stereo partly shown) [Example 261], the pEC50 in assay [1] (setting [9]), in assay [3] (RLuc reporter), in assay [4] (setting [10]) and in assay [5] was 9.00 to 12.00 each time. Moreover, the EC50 in assay [2] came to 0.011 nM.

As for `COC(=O)N[C@H](C(=O)N1CCC[C@H]1c1nc2c3ccccc3c3cc(-c4ccc(-c5cnc([C@@H]6CCCN6C(=O)[C@@H](NC(=O)OC)[C@@H](C)OC)[nH]5)cc4)ccc3c2[nH]1)C(C)C` [Example 301], the pEC50 in assay [1] (genotype 1a replicon) was 7.36 to 9.00; in assay [3] it was 7.36 to 9.00; in assay [4] (setting [6]) it was 8.30 to 9.00; in assay [5] it was 9.00 to 12.00. Further, in assay [2], the EC50 turned out to be 0.019 nM.

For the compound `COC(=O)N[C@H](C(=O)N[C@H](c1nc(-c2ccc3c(c2)C(F)(F)c2cc(-c4ccc5nc([C@@H]6CCCN6C(=O)[C@H](NC(=O)OC)c6ccccc6)[nH]c5c4)ccc2-3)c[nH]1)C(C)C)C(C)C` [Example 226], the pEC50 was 7.36 to 9.00 in assay [1] (setting [9]), 7.36 to 9.00 in assay [3] (RLuc reporter), 8.30 to 9.00 in assay [4] (setting [10]) and 9.00 to 12.00 in assay [5]. In addition, in assay [2], the EC50 stood at 0.009 nM.

For `COC(=O)N[C@H](C(=O)N1CCC[C@H]1c1ncc(-c2ccc3c(c2)COc2c-3ccc(-c3cnc([C@@H]4CCCN4C(=O)[C@@H](NC(=O)OC)C(C)C)[nH]3)c2F)[nH]1)C(C)C` [Example 308], the pEC50 in assay [1] (genotype 1a replicon), in assay [3], in assay [4] (setting [6]) and in assay [5] was 9.00 to 12.00 each time. In assay [2], the EC50 was 0.008 nM.

With `COC(=O)N[C@H](C(=O)N1CCC[C@H]1c1ncc(-c2ccc3c(c2)C(F)(F)c2cc(-c4ccc5nc([C@@H]6CCCN6C(=O)[C@H](NC(=O)OC)c6ccccc6)[nH]c5c4)ccc2-3)[nH]1)C(C)C` [Example 258], the pEC50 in assay [1] (setting [9]), in assay [3] (RLuc reporter), in assay [4] (setting [10]) and in assay [5] was 9.00 to 12.00 each time. For the same compound, in assay [2], the EC50 stood at 0.005 nM.

With `COC(=O)N[C@@H](C)C(=O)N1CCC[C@H]1c1ncc(-c2ccc3c(c2)COc2c-3ccc3cc(-c4cnc([C@@H]5CCCN5C(=O)[C@H](NC(=O)OC)c5ccccc5)[nH]4)ccc23)[nH]1` [Example 7], the pEC50 in assay [1] (setting [11]) is 9.00 to 12.00; in assay [3] (72 h, Table 1, 72 hours) it was 9.00 to 12.00; in assay [4] (setting [12]), 9.00 to 12.00; in assay [5], 9.00 to 12.00. The EC50 in assay [2] (72 h) came out at 0.008 nM.

For `COC(=O)NC(C(=O)N1C[C@H](C)C[C@H]1c1ncc(-c2ccc(-c3ccc4cc(-c5cnc([C@@H]6CCCN6C(=O)[C@@H](NC(=O)OC)C(C)C)[nH]5)ccc4c3)cc2)[nH]1)c1cccnc1` (stereo partly shown) [Example 215], the pEC50 in assay [1] (setting [9]), in assay [3] (RLuc reporter), in assay [4] (setting [10]) and in assay [5] was 9.00 to 12.00 each time. The EC50 in assay [2] stood at 0.023 nM.

As to `COC(=O)N[C@H](C(=O)N1CCC[C@H]1c1nc2ccc3cc(-c4ccc(-c5cnc([C@@H]6CC7(CN6C(=O)[C@H](NC(=O)OC)c6ccccc6)OCCO7)[nH]5)cc4)ccc3c2[nH]1)C(C)C` [Example 296], the pEC50 in assay [1] (genotype 1a replicon), in assay [3], in assay [4] (setting [6]) and in assay [5] was 9.00 to 12.00 each time. In addition, the EC50 in assay [2] was found to be 0.063 nM.

Turning to `COC(=O)NC(C(=O)N1CCC[C@H]1c1ncc(-c2ccc3c(c2)C(F)(F)c2cc(-c4ccc(-c5cnc([C@@H]6CCCN6C(=O)[C@@H](NC(=O)OC)C6CCOCC6)[nH]5)cc4)ccc2-3)[nH]1)C1CCOCC1` (stereo partly shown) [Example 202], the pEC50 in assay [1] (setting [9]) is 9.00 to 12.00; in assay [3] (RLuc reporter), 7.36 to 9.00; in assay [4] (setting [10]) it was less than 8.30; in assay [5], 9.00 to 12.00. In assay [2], the EC50 is 0.017 nM.

`COC(=O)N[C@H](C(=O)N1[C@@H]2CC[C@@H](C2)[C@H]1c1ncc(-c2ccc3c(c2)CCc2cc(-c4cnc([C@@H]5CCCN5C(=O)[C@@H](NC(=O)OC)C(C)OC)[nH]4)ccc2-3)[nH]1)C(C)C` (stereo partly shown) [Example 85]: the pEC50 is 9.00 to 12.00 in assay [1] (setting [7]); 9.00 to 12.00 in assay [3] (72 h, Table 2, 72 hours); 8.30 to 9.00 in assay [4] (setting [8]); 9.00 to 12.00 in assay [5]. Moreover, in assay [2] (72 h), the EC50 was 0.016 nM.

For `COC(=O)N[C@H](C(=O)N1CCC[C@H]1c1nc2ccc(-c3ccc4c(c3)C(F)(F)c3cc(-c5c[nH]c([C@@H]6CCCN6C(=O)[C@@H](NC(=O)OC)C6CCOCC6)n5)ccc3-4)cc2[nH]1)C(C)C` [Example 219], the pEC50 in assay [1] (setting [9]) was 9.00 to 12.00; in assay [3] (RLuc reporter), 9.00 to 12.00; in assay [4] (setting [10]) it was 8.30 to 9.00; in assay [5], 9.00 to 12.00. For the same compound, the EC50 in assay [2] was 0.008 nM.

On to `COC(=O)N[C@H](C(=O)N1CCC[C@H]1c1ncc(-c2ccc3c4ccc(-c5cnc([C@@H]6CCCN6C(=O)[C@@H](NC(=O)OC)[C@@H](C)OC)[nH]5)cc4c4ccccc4c3c2)[nH]1)C(C)C` [Example 311], for which the pEC50 in assay [1] (genotype 1a replicon), in assay [3], in assay [4] (setting [6]) and in assay [5] was 9.00 to 12.00 throughout. Further, the EC50 in assay [2] was found to be 0.025 nM.

In the case of `COC(=O)N[C@H](C(=O)N1CCC[C@H]1c1ncc(-c2ccc3c(c2)COc2c-3ccc3cc(-c4cnc([C@@H]5CCCN5C(=O)[C@@H](NC(=O)OC)[C@@H](C)OC)[nH]4)ccc23)[nH]1)C1CCOCC1` [Example 15], the pEC50 was 9.00 to 12.00 in assay [1] (setting [11]); 9.00 to 12.00 in assay [3] (72 h, Table 1, 72 hours); 9.00 to 12.00 in assay [4] (setting [12]); 9.00 to 12.00 in assay [5]. For the same compound, the EC50 in assay [2] (72 h) is 0.026 nM.

As to `COC(=O)N[C@H](C(=O)N1CCC[C@H]1c1ncc(-c2ccc3cc(-c4ccc(-c5cnc([C@@H]6CC(F)(F)CN6C(=O)[C@H](NC(=O)OC)c6ccccc6)[nH]5)cc4)ccc3c2)[nH]1)C1CCOCC1` [Example 225], the pEC50 in assay [1] (setting [9]), in assay [3] (RLuc reporter), in assay [4] (setting [10]) and in assay [5] was 9.00 to 12.00 in each case. Further, in assay [2], the EC50 was 0.009 nM.

For `COC(=O)N[C@H](C(=O)N1CCC[C@H]1c1ncc(-c2ccc(-c3ccc(-c4[nH]c([C@@H]5CCCN5C(=O)[C@@H](NC(=O)OC)C(C)C)nc4Cl)cc3)cc2)[nH]1)C(C)C` [Example 359], the pEC50 in assay [1] (genotype 1a replicon), in assay [3], in assay [4] (setting [6]) and in assay [5] was 9.00 to 12.00 each time. The EC50 in assay [2] worked out at 0.011 nM.

Values taken from patent US10344019B2 (priority 2010, dated 2019).
